{"source": "paper PMC10818515", "about": "“Improvement of the Thermal Stability and Aqueous Solubility of Three Matrine Salts Assembled by the Similar Structure Salt Formers” (Pharmaceuticals, 2024)", "assay": "Equilibrium solubility by the shake flask method", "type": "physicochemical", "details": "37 °C; for solubility thermodynamic at 72 h: thermodynamic from solid, read-out: Equilibrium solubility, Concentration; for solubility thermodynamic at 72 h / Equilibrium solubility, Concentration: n = 3", "protocol": "Aqueous solubility is one of the key factors affecting the bioavailability of drugs. […] Generally, the charged part has high aqueous solubility. […] The concentration of the samples was analyzed through high-performance liquid chromatography. The mobile phase consisted of methanol, acetonitrile, and phosphate buffer (15:15:70).", "note": "Like-named read-outs stand apart in the source and are kept apart here.", "data": [{"compound": "O=C1CCC[C@@H]2[C@H]3CCCN4CCC[C@@H](CN12)[C@@H]34", "note": "[MAT, Matrine]", "values": [{"measurement": "solubility thermodynamic at 72 h", "setting": "aqueous buffer, pH = 4.5 acetic acid buffer", "value": "91.8 ± 2.31", "unit": "mg/mL"}, {"measurement": "solubility thermodynamic at 72 h", "setting": "aqueous buffer, pH = 6.8 phosphate buffer", "value": "64.9 ± 1.13", "unit": "mg/mL"}, {"measurement": "solubility thermodynamic at 72 h", "setting": "simulated gastric fluid, pH = 1.2 hydrochloric acid solution", "value": "90.9 ± 1.01", "unit": "mg/mL"}, {"measurement": "solubility thermodynamic at 72 h", "setting": "H2O (purified water)", "value": "65.36 ± 0.53", "unit": "mg/mL"}]}, {"compound": "O=C(O)c1c(O)cccc1O.O=C1CCCC2C3CCCN4CCCC(CN12)C34", "note": "(stereo not drawn) [MAT-26DHB, MAT-2,6-dihydroxybenzoic acid]", "values": [{"measurement": "Equilibrium solubility, Concentration", "setting": "H2O (purified water)", "value": "7.42 ± 0.45", "unit": "mg/mL"}, {"measurement": "Solubility relative to that of MAT", "setting": "acetate buffer (pH 4.5)", "value": 0.09, "unit": "times"}, {"measurement": "Solubility relative to that of MAT", "setting": "hydrochloric acid solution (pH 1.2)", "value": 0.14, "unit": "times"}, {"measurement": "Equilibrium solubility, Concentration", "setting": "pH = 1.2 hydrochloric acid solution", "value": "13.08 ± 1.52", "unit": "mg/mL"}, {"measurement": "Equilibrium solubility, Concentration", "setting": "pH = 4.5 acetic acid buffer", "value": "8.23 ± 0.10", "unit": "mg/mL"}, {"measurement": "Equilibrium solubility, Concentration", "setting": "pH = 6.8 phosphate buffer", "value": "5.71 ± 0.75", "unit": "mg/mL"}, {"measurement": "Solubility relative to that of MAT", "setting": "phosphate buffer (pH 6.8)", "value": 0.09, "unit": "times"}, {"measurement": "Solubility relative to that of MAT", "setting": "pure water", "value": 0.11, "unit": "times"}]}]}
